For data set [1], the system named is +SA mammary epithelial cells. Briefly: Antiproliferative MTT assay on +SA mammary epithelial cells. It counts as cell-based, mouse. Particulars: for IC50: malignant mice +SA mammary cells, 24 hour treatment, MTT; for antiproliferative activity: +SA mammary cells, in words. An excerpt: +SA mammary epithelial cell lines were serially passaged at subconfluent cell density. The +SA cell line was derived from an adenocarcinoma that developed spontaneously in a BALB/c female mouse. That cell line is discussed in more detail in Anderson, L. W., Danielson, K. G., Hosick, H. L. Eur. J. Cancer Clin. Oncol. 1981, 17, 1001-1008, Danielson, K G., Anderson, L. W., Hosick, H. L. Cancer Res. 1980, 40, 1812-1819.31, and Anderson, L. W., Danielson, K. G., Hosick, H. L. In Vitro. 1979, 15, 841-843. Cell culture conditions were similar to those described in detail in Shah, S. J., Gapor, A., Sylvester, P. W. Nutr. Cancer. 2003, 45, 236-246, Shah, S. J., Sylvester, P. W. Biochem. Cell. Biol. 2005, 83, 86-95, Wali, V. B., Sylvester, P. W. Lipids, 2007, 42, 1113-1123, and Wali, V. B., Bachawal, S. V., Sylvester, P. W. Exp. Biol. Med. (Maywood) 2009, 234, 639-650. Briefly, +SA cells were maintained in serum-free defined medium consisting of Dulbecco's modified Eagle's medium (DMEM)/F12 containing 5 mg/ml bovine serum albumin (BSA), […], 100 U/ml soybean trypsin inhibitor, 100 U/ml penicillin, 0.1 mg/ml streptomycin, […], and 10 ng/ml epidermal growth factor. For subculturing, cells were rinsed twice with sterile Ca^2+ and Mg^2+-free phosphate buffered saline (PBS) and incubated in 0.05% trypsin containing 0.025% EDTA in PBS for 5 minutes at 37° C. The released cells were centrifuged, resuspended in serum-free defined media and counted using a hemocytometer. A stock solution of the Compounds was prepared in DMSO. Once dissolved, this solution was added to a small volume of sterile 10% BSA in water and incubated overnight at 37° C. This solution conjugated to BSA was used to prepare various concentrations (0-40 μM) of tocotrienol analogs. DMSO was added to all treatment media such that the final DMSO concentration was the same in all treatment groups within a given experiment and was always less than 0.1%. For cytotoxicity studies, cells were seeded at a density of 5×10^4 cells/well (6 wells/group) in 24-well culture plates and allowed to grow in serum-free control defined media. After a 3 day incubation period (approximately 70% confluency), cells were divided equally into various treatment groups and exposed to their respective treatments for a 24 hour incubation period. Following the 24 hour treatment period, cell viability was measured using the MTT assay. All materials were purchased from Sigma Chemical Company (St. Louis, Mo.) unless otherwise stated.
+SA mammary epithelial cell viable number was determined by the 3-(4,5-dimethylthiazol-2-yl)-2,5-diphenyl tetrazolium bromide (MTT) colorimetric assay. On the day of assay, treatment medium was replaced with fresh growth medium containing 0.42 mg/ml MTT, and the cells in 24-well plates were incubated at 37° C. for 4 hours. Afterward, the medium was removed, and the MTT crystals were dissolved in isopropyl alcohol (1 ml/well). The optical density of each sample was read at 570 nm on a microplate reader (SpectraCount, Packard BioScience Company), against a blank prepared from cell-free cultures. The number of cells/well was calculated against a standard curve prepared by plating various concentrations of cells, as determined by hemocytometer, at the start of each experiment.
Differences among the various treatment groups in +SA cell cytotoxic studies were determined by analysis of variance (ANOVA) followed by Dunnett's t-test. The difference of P<0.05 was considered to be statistically significant as compared with vehicle-treated controls. Linear regression analysis of treatment effects on viable cell number in growth and cytotoxicity studies was used to determine the 50% growth inhibition concentration (IC50) for individual treatments.

Another data set relates to MDA-MB-231 cells. The data set can be described thus: Wound healing anti-migratory assay. The class given is cell-based. Particulars: Homo sapiens, single dose of 5 μM, 24 hours, read-out: inhibition of the migrated MDA-MB231 cells. As for the experimental part: The highly metastatic human breast cancer MDA-MB-231 cells were cultured in RPMI 1640 medium containing 10 mM HEPES, 4 mM L-glutamine, 10% fetal bovine serum, penicillin (100 IU mL-1), and streptomycin (50 μg mL-1), and grown in a 5% CO2 atmosphere at 37° C. Cells were plated onto sterile 24-well culture plates and allowed to recover for a confluent cell monolayer formed in each well (>95% confluence). Wounds were then inflicted to each cell monolayer using a sterile 200 μL pipette tip. Media were removed, cells monolayers were washed twice with PBS, and then fresh media containing test compounds were added to each well. Test compounds were prepared in DMSO at 5 μM concentration and added to the plates using DMSO as negative control. Tests were preformed in triplicate. The incubation was carried out for 24 hours under serum-starved conditions, after which the media was removed and the cells were fixed and stained using a Romanowski stain sold under the Diff Quick name (Dade Behring Diagnostics, Aguada, Puerto Rico). The number of cells which migrated on the scratched wound were counted under the microscope in three or more randomly selected fields (magnification: 400×). Final results are expressed as mean+/−SEM per 400× field.

The nature of data set [2]: Stability in phosphate buffer. It counts as physicochemical. Particulars: phosphate buffer pH 7.4, 37° C. The protocol: The stability of each of α-tocotrienol and Compound 6 was studied at 37° C. in phosphate buffer (pH 7.4). In amber vials, 500 μg/mL of each compound were dissolved in the buffer and the solution was incubated at 37° C. At interval times (0, 0.5, 1, 2, 4, 6, and 24 h), 50 μL it samples were collected and equal volumes of methanol were added to each sample followed by HPLC analysis.
A Shimadzu HPLC system (Columbia, Md.) was used for quantification of α-tocotrienol and Compound 6. This system is composed of SIL 20-AHT autosampler, SPD-20A UV/VIS detector, and LC-20AB pump connected to a Dgu-20A3 degasser. Data acquisition was achieved by LC Solution software version 1.22 SP1 Shimadzu. The following chromatographic conditions were used: […] (250×4.6 mm id; Phenomenex, Torrance, Calif.), flow rate was adjusted to 1.0 mL/min, and λ was set at 295 nm. For α-tocotrienol solubility and stability studies, an isocratic elution with MeOH-EtOH—CH3CN (40:30:30, v/v/v) as mobile phase for 10 min. α-tocotrienol was eluted at 6.7 min. For the simultaneous separation of α-tocotrienol and Compound 6 the following gradient elution was also used starting with H2O— MeOH—N(Et)3 (10:90:0.05, v/v/v) for 5 min, followed by isocratic MeOH—N(Et)3 (100:0.05, v/v) for another 10 min. The retention times were 4 and 14.1 for Compound 6 and α-tocotrienol, respectively. Standard curves for α-tocotrienol and Compound 6 in MeOH were prepared in the range of 0.4-50 μg/mL and 1-1000 μg/mL, respectively. Each compound was quantified using its calibration curve for compounds peak area versus its concentration.

Where [3] appears, read: Mus musculus, Epithelial cell, 24 h.

Structures are written as SMILES.

In general, IC50 refers to the concentration needed to halve the response being measured. One may read the inhibition as the relative decrease from the control value, in per cent.

On to `CC(C)=CCC/C(C)=C/CC/C(C)=C/CC[C@]1(C)CCc2c(C)c(OC(=O)c3ccc(C(=O)O)cc3C(=O)O)c(C)c(C)c2O1` [Compound 1, 4-(((R)-2,5,7,8-tetramethyl-2-((3E,7E)-4,8,12-trimethyltrideca-3,7,11-trienyl)chroman-6-yloxy)carbonyl)isophthalic acid], for which it took 1.5 µM to reach half-maximal inhibition in data set [1] (setting [3]) (IC50). Also, the inhibition at 5 µM in the data set with MDA-MB-231 cells was about 50%. Take `CC(C)=CCC/C(C)=C/CC/C(C)=C/CC[C@]1(C)CCc2cc(OC(=O)c3ccc(C(=O)O)cc3C(=O)O)c(C)c(C)c2O1` [Compound 2, 4-(((R)-2,7,8-trimethyl-2-((3E,7E)-4,8,12-trimethyltrideca-3,7,11-trienyl)chroman-6-yloxy)carbonyl)isophthalic acid]: the IC50 in data set [1] (setting [3]) is 0.62 µM. In other words, the sub-micromolar range. With `CC(C)=CCC/C(C)=C/CC/C(C)=C/CC[C@]1(C)CCc2c(C)c(OC(=O)c3cc(C(=O)O)ccc3C(=O)O)c(C)c(C)c2O1` [Compound 3, 2-(((R)-2,5,7,8-tetramethyl-2-((3E,7E)-4,8,12-trimethyltrideca-3,7,11-trienyl)chroman-6-yloxy)carbonyl)terephthalic acid], the IC50 in data set [1] (setting [3]) worked out at 1.46 µM. Besides, the inhibition at 5 µM in the data set on MDA-MB-231 cells is about 50%. The molecule `CC(C)=CCC/C(C)=C/CC/C(C)=C/CC[C@]1(C)CCc2cc(OC(=O)c3cc(C(=O)O)ccc3C(=O)O)c(C)c(C)c2O1` [Compound 4, 2-(((R)-2,7,8-trimethyl-2-((3E,7E)-4,8,12-trimethyltrideca-3,7,11-trienyl)chroman-6-yloxy)carbonyl)terephthalic acid] registered an IC50 in data set [1] (setting [3]) of 1.44 µM. The molecule `CC(C)=CCC/C(C)=C/CC/C(C)=C/CC[C@]1(C)CCc2cc(OC(=O)c3cc(C(=O)O)ccc3C(=O)O)cc(C)c2O1` [Compound 5, 2-(((R)-2,8-dimethyl-2-((3E,7E)-4,8,12-trimethyltrideca-3,7,11-trienyl)chroman-6-yloxy)-carbonyl)terephthalic acid] had an IC50 in data set [1] (setting [3]) of 1.5 µM.

`CC(C)=CCC/C(C)=C/CC/C(C)=C/CC[C@]1(C)CCc2cc(OC(=O)/C=C\C(=O)O)c(C)c(C)c2O1` [Compound 7, (Z)-4-oxo-4-((R)-2,7,8-trimethyl-2-((3E,7E)-4,8,12-trimethyltrideca-3,7,11-trienyl)-chroman-6-yloxy)but-2-enoic acid] gave an IC50 in data set [1] (setting [3]) of 2.3 µM. On to `CC(C)=CCC/C(C)=C/CC/C(C)=C/CC[C@]1(C)CCc2cc(OC(=O)/C=C\C(=O)O)cc(C)c2O1` [Compound 8, (Z)-4-((R)-2,8-dimethyl-2-((3E,7E)-4,8,12-trimethyltrideca-3,7,11-trienyl)chroman-6-yloxy)-4-oxobut-2-enoic acid], for which the half-maximal inhibitory concentration (IC50) in data set [1] (setting [3]) is 0.86 µM; in data set [1], 0.87 µM. As to `CC(C)=CCC/C(C)=C/CC/C(C)=C/CC[C@]1(C)CCc2cc(OC(=O)CC(C)CC(=O)O)c(C)c(C)c2O1` (stereo partly drawn) [Compound 9, 3-Methyl-5-oxo-5-((R)-2,7,8-trimethyl-2-((3E,7E)-4,8,12-trimethyltrideca-3,7,11-trienyl)chroman-6-yloxy)pentanoic acid], the antiproliferative activity result in data set [1] is “inactive”. The molecule further displayed an IC50 in data set [1] (setting [3]) of 19.2 µM. In the case of `CC(C)=CCC/C(C)=C/CC/C(C)=C/CC[C@]1(C)CCc2cc(OC(=O)c3ccccc3)c(C)c(C)c2O1` [Compound 10, (R)-2,7,8-trimethyl-2-((3E,7E)-4,8,12-trimethyltrideca-3,7,11-trienyl)chroman-6-yl benzoate], the antiproliferative activity entry in data set [1] was “inactive”. This molecule also had an IC50 in data set [1] (setting [3]) of 6.55 µM. The inhibition at 5 µM in the data set with MDA-MB-231 cells was about 50%. For `CC(=O)Oc1cc(C(=O)Oc2cc3c(c(C)c2C)O[C@](C)(CC/C=C(\C)CC/C=C(\C)CCC=C(C)C)CC3)cc(OC(C)=O)c1OC(C)=O` [Compound 11, 5-(((R)-2,7,8-trimethyl-2-((3E,7E)-4,8,12-trimethyltrideca-3,7,11-trienyl)chroman-6-yloxy)carbonyl)benzene-1,2,3-triyl triacetate], in data set [1] (setting [3]), half-maximal inhibition (IC50) was put at 1.72 µM. As to `CC(=O)Oc1ccc(/C=C/C(=O)Oc2cc3c(c(C)c2C)O[C@](C)(CC/C=C(\C)CC/C=C(\C)CCC=C(C)C)CC3)cc1OC(C)=O` [Compound 12, 4-((E)-3-oxo-3-((R)-2,7,8-trimethyl-2-((3E,7E)-4,8,12-trimethyltrideca-3,7,11-trienyl)chroman-6-yloxy)prop-1-enyl)-1,2-phenylene diacetate], in data set [1], the antiproliferative activity entry is “inactive”. The molecule further registered an IC50 in data set [1] (setting [3]) of over 40 µM.

Turning to `CC(C)=CCC/C(C)=C/CC/C(C)=C/CC[C@]1(C)CCc2c(C)c(O)c(C)c(C)c2O1` [α-tocotrienol], in data set [2], the “stability in phosphate buffer (in words)” value was “highly unstable” and the “start of decomposition after dissolution” value is listed as 1 h. In addition, the “chemical stability relative to the zero time concentration” value in data set [2] (over 24 h) is listed as “completely undetectable”.

Source of the values: patent US8969303B2, “Tocotrienol esters” (First Tech International Limited, priority 2010, dated 2015).
